Experimental findings from patent US8158810B2 (Gilead Sciences, Inc., priority 2006, dated 2012) are described below.

In one test the test system is Wistar-derived male rats. Put plainly: Nicotine self-administration. The test is classed as in vivo, rat. The settings on record: increasing doses (7.5, 10, 15 mg/kg i.p.) 30 minutes prior to session.
A further test concerns Male Sprague-Dawley rats. Put plainly: Cocaine self administration and reinstatement model (cocaine induced relapse). It counts as in vivo, rat. The settings on record: for Lever presses (Avg ± Std. error): significantly different from Vehicle, p < 0.05. On the procedure: Intravenous cocaine (0.35 mg/kg/inj) was used in an operant self administration and reinstatement model in rats. In this model, rats addicted to cocaine repeatedly pressed a lever to obtain an intravenous dose (iv) of cocaine. When cocaine was removed, rats stopped pressing the lever. However, rats resumed lever pressing for cocaine (reinstatement) if subjected to a small intraperitoneal (ip) dose (10 mg/kg) of cocaine that normally has no effect in naïve animals. This is a valid animal model of relapse in cocaine addicted humans, and tests the ability of compounds of Formula I to block cocaine craving and relapse.
Male Sprague-Dawley rats with jugular vein catheterization were used. Rats were presented with a choice of two levers in the test/training chamber. […] The following day the reinforcer was switched to FR1 lever pressing for cocaine (0.35 mg/kg/inj, delivered in 0.27 sec). […] Daily training sessions for each group lasted 2 hours, or until a subject earned 200 drug infusions, whichever came first. The subjects remained in drug self-administration training mode until acquisition criterion was met (average presses on the active lever varied by <10% over 3 consecutive training days). This typically takes 10-14 days.
For extinction and reinstatement experiments, rats were required to display stable responding (variability not higher than 15% in 2 consecutive sessions) on the FR1 schedule of reinforcement. […] When average responding across three consecutive extinction sessions fell to 15% of responding during maintenance, subjects were tested for reinstatement. In cocaine-experienced animals, reinstatement was primed with a non-contingent injection of cocaine (10 mg/kg ip) immediately before the reinstatement session. In order to increase statistical power and therefore decrease animal usage, a second extinction period was initiated 3-4 days after the first, which allowed for additional within-subjects comparisons. Experiments used a between-session-training and testing method in which animals were trained to self administer drug. Their behavior was then extinguished and then reinstatement was primed on different days.
Animals were trained to self administer cocaine (0.35 mg/kg/inj) until they reached stable responding. They were then trained in the same chambers but cocaine was no longer available.

Experimental for Wistar-derived male rats: Wistar-derived male rats (250-300 g) were housed in groups of two and maintained in a temperature-controlled environment on a 12 hour: 12 hour light cycle (0600 h on-1800 h off), upon arrival in the laboratory. Animals were given free access to food and water during a one-week habituation period to the laboratory. […] Animals were handled daily for several days to desensitize them to handling stress before experimental testing. The sample sizes (n=8) provided reliable estimates of drug effects.
Mecamylamine was dissolved in 0.09% isotonic saline and administered at a volume of 1 ml/kg.
Food training and nicotine self-administration took place in 8 standard Coulbourn operant chambers. Each chamber was housed in a sound-attenuated box. Operant chambers were equipped with two levers, mounted 2 cm above the floor, and a cue light mounted 2 cm above the right lever on the back wall of the chamber. For food training, a food hopper was located 2-cm to the left/right of either lever, in the middle of the back wall. Intravenous infusions were delivered in a volume of 0.1 ml over a 1 second interval via an infusion pump (Razel, Conn.) housed outside of the sound attenuated chamber.
Initially, rats were restricted to 15 grams of food daily (approximately 85% of their free-feeding body weight). […]

Take `CS(=O)(=O)Nc1ccc(-c2coc3cc(OCc4cccc(C(=O)O)c4)ccc3c2=O)cc1` [Cmpd A, 3-[(3-{4-[(methylsulfonyl)amino]phenyl}-4-oxochromen-7-yloxy)methyl]-benzoic acid]: the “number of bar presses (number of infusions) for nicotine administration” value in the test with Wistar-derived male rats is listed as “reduced the number of bar presses”. For the same compound, the “Lever presses (Avg ± Std. error)” value with Male Sprague-Dawley rats (7.5 mg/kg prior to cocaine priming dose (10 mg/kg), N = 9) was found to be 24.94 ± 7.92; in the test with Male Sprague-Dawley rats (10 mg/kg prior to cocaine priming (10 mg/kg) dose, N = 6), 19.83 ± 11.30. Besides, in the test with Male Sprague-Dawley rats (7.5 and 10 mg/kg prior to the priming injection of cocaine (10 mg/kg)), the “lever presses responding after priming injection of cocaine” value is reported as “did not show an increase in their lever presses responding”. Moreover, in the test on Male Sprague-Dawley rats (ip injections, rats), the relapse for cocaine result is given as “dose dependently blocked relapse for cocaine”.
